The text below walks through data of PubChem BioAssay (NCI).

Structures are written as SMILES.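 Exposure lasted 48 hours, with cells grown in 96-well plates and compounds tested at five concentrations. At the GI50, growth is halved. TGI marks complete inhibition of growth.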 Bounds are passed on as bounds.

Holding throughout (assay): DTP human tumour cell line panel, 48 h
In assay [1] the test system is EKVX NSCLC.
The subject of assay [2] is HCT-116 colon.
Assay [3] has as its system LOX IMVI melanoma.
Assay [4] deals with MOLT-4 leukemia.
For assay [5], the system named is SF-295 CNS.
Assay [6] relates to SW-620 colon.
For assay [7], the system named is UACC-62 melanoma.
Assay [8] has as its system COLO 205 colon.
Assay [9] deals with NCI/ADR-RES ovarian.
The test system of assay [10] is PC-3 prostate.

The term TGI denotes the concentration giving total growth inhibition. The low end stands for more potent growth arrest, the high end for less potent growth arrest. As for `O=C(NCCCCN=c1cccccc1NCCCCNC(=O)OCc1ccccc1)OCc1ccccc1`, the TGI was found to be 81.4 µM in assay [1]; 25 µM in [2]; 30 µM in assay [3]; 38.1 µM in assay [4]; 26.9 µM in [5]; 41.7 µM in assay [6]. In addition, the TGI in [7] is 37.5 µM.

Take `CCOC(=O)C1(c2ccccc2)CCC(=O)CC1`: the TGI in [8], in assay [1], in assay [2], in assay [3], in assay [4] and in [5] was greater than 100 µM in each case. Moreover, the TGI in assay [6] and in [7] was greater than 100 µM throughout.

Take `CN(C)c1c([O-])c(=[N+](C)C)c1=O`: the TGI in [1], in assay [2], in assay [3], in [4], in assay [5] and in assay [6] was greater than 100 µM in each case. This compound also yielded a TGI in assay [7] greater than 100 µM.

As to `CC[C@@]12N=C(N(C)C)C[C@]1(O)ON=C2C`, the TGI in [8], in [1], in assay [2], in assay [4], in assay [5] and in assay [6] was greater than 100 µM throughout.

In the case of `O=C(O)CSc1n[nH]c(-c2ccccc2)n1`, the TGI in assay [8], in [1], in [3], in assay [4], in assay [5] and in assay [6] was greater than 100 µM each time. Besides, the TGI in assay [7] is greater than 100 µM.

For `O=c1[nH]cc(COCCO)c(=O)[nH]1`, the TGI in [8], in assay [1], in assay [2], in assay [3], in [4] and in [5] was greater than 100 µM throughout. Further, the TGI in [6] and in assay [7] was greater than 100 µM in each case.

On to `O=C1c2ccccc2C2(O)c3cc4ccccc4cc3OC12O` (configuration not stated), for which the TGI in assay [8], in assay [1], in assay [2], in assay [3], in assay [4] and in [5] was greater than 100 µM throughout. In addition, the TGI in [6] and in assay [7] was greater than 100 µM in each case.

Consider `Cc1ccc(NC(=O)C2C(=O)N(c3ccc(C)c(C)c3)C(=O)C2N=N)cc1C` (configuration not stated), for which the TGI in assay [8], in assay [1], in assay [2], in assay [4], in assay [5] and in assay [6] was greater than 100 µM in each case. In [7], this compound displayed a TGI greater than 100 µM.

As to `O=C(Nc1cc(Cl)ccc1Cl)c1cc2cccc(Cl)c2oc1=O`, the TGI in assay [8], in assay [1], in assay [2], in assay [3], in assay [4] and in assay [5] was greater than 100 µM each time. Moreover, the TGI in assay [6] and in assay [7] was greater than 100 µM each time.

In the case of `O=C(CSc1nnc(-c2ccc(N=Cc3ccc(Cl)cc3)cc2)o1)Nc1ccc(Cl)cc1`, the TGI in assay [8], in assay [1], in assay [2], in assay [3], in assay [4] and in assay [5] was greater than 100 µM in each case. For the same compound, the TGI in assay [6] and in assay [7] was greater than 100 µM throughout.

As for `CC(=O)n1c2c(c(=O)n1-c1ccccc1)S(=O)CCC2` (configuration not stated), the TGI was greater than 100 µM in assay [8]; greater than 100 µM in assay [1]; greater than 100 µM in assay [2]; greater than 100 µM in assay [3]; 6.9 µM in assay [4]; greater than 100 µM in assay [5]. In addition, the TGI in [6] and in assay [7] was greater than 100 µM in each case.

Regarding `CCc1c(OC(C)=O)c2c(NC3OC(COC(C)=O)C(OC(C)=O)C(OC(C)=O)C3OC(C)=O)nc(OC)nc2oc1=O` (configuration not stated), the TGI in [8], in assay [1], in assay [2], in assay [3], in [4] and in assay [5] was greater than 100 µM in each case. The TGI in [6] and in assay [7] was greater than 100 µM each time.

By GI50 is commonly meant the concentration at which growth is held to half of that of the control. Regarding `CCCCCCC[CH2][Sn]1([CH2]CCCCCCC)[O]C(=O)c2cccnc2[S]1`, the GI50 in assay [8], in [1], in [2], in [3], in assay [4] and in assay [5] was greater than 100 µM in each case. Moreover, the GI50 in [6] and in assay [7] was greater than 100 µM each time. Further, the TGI in assay [8], in [1], in [2], in [3], in [4] and in assay [5] was greater than 100 µM each time. Moreover, the TGI in assay [6] and in [7] was greater than 100 µM in each case.

Regarding `O=C1NC(=S)NNC12c1ccccc1-c1ccccc12`, the TGI in assay [8], in [1], in [3], in assay [4], in [9] and in assay [6] was greater than 10 µM each time. In assay [7], this compound yielded a TGI greater than 10 µM.

Consider `O=[N+]([O-])c1ccc(-n2nnc(C3=NCCN3)c2-c2ccc(Cl)cc2)cc1`, for which the TGI in assay [8], in [1], in assay [2], in assay [3], in [4] and in [5] was greater than 100 µM in each case. Moreover, the TGI in assay [6] and in [7] was greater than 100 µM each time.

For the compound `Cc1c(Cl)cccc1N1C(=O)C(Cl)=C(Cl)C1=O`, the TGI was greater than 100 µM in assay [8]; greater than 100 µM in assay [1]; greater than 100 µM in [2]; greater than 100 µM in assay [3]; 28.1 µM in assay [4]; greater than 100 µM in [5]. Besides, the TGI in assay [6] and in [7] was greater than 100 µM throughout.

With `COc1ccc2oc(-c3cccnc3)cc(=O)c2c1`, the TGI in assay [8], in assay [2], in [3], in [4], in assay [5] and in assay [7] was greater than 100 µM each time.

In the case of `CCOc1ccc2c(c1)[n+]([O-])c(-c1ccccc1Cl)c(N)[n+]2[O-]`, the TGI in assay [8], in assay [1], in assay [2], in assay [4], in assay [5] and in assay [6] was greater than 100 µM in each case.

As to `CCC1C2C=CC(CC2)N1S(=O)(=O)c1ccc(C)cc1` (configuration not stated), the TGI in assay [8] was 54.5 µM; in assay [1] it was greater than 100 µM; in assay [2], greater than 100 µM; in assay [3], 31.5 µM; in assay [4], greater than 100 µM; in assay [5] it was greater than 100 µM. Also, the TGI in assay [6] was 50.3 µM; in [7], 49.7 µM.

Turning to `O=C(N/N=C1/C(=O)N(c2ccc(Cl)cc2Cl)C(=O)C(=O)C1c1nc2ccccc2o1)c1ccccc1O` (configuration not stated), the TGI in [8] is greater than 100 µM; in [1] it was greater than 100 µM; in [2], greater than 100 µM; in [4], greater than 100 µM; in assay [6], greater than 100 µM; in assay [7], 48.6 µM.

`O=C(O)[C@H](NS(=O)(=O)c1ccc2ccccc2c1)c1ccccc1`: the TGI in assay [8], in assay [3], in [4] and in assay [7] was greater than 100 µM throughout.

`c1ccc(SC2CCSc3ccccc3C2Sc2ccccc2)cc1` (configuration not stated): the TGI in [1], in assay [2], in [3], in [4], in assay [5] and in assay [6] was greater than 100 µM throughout.

Consider `CCSc1[nH]c(Nc2nc(-c3ccccc3)n(-c3ccccc3)n2)c(C(N)=O)c1C(N)=O`, for which the TGI in assay [8], in assay [1], in [3], in assay [4], in assay [10] and in [5] was greater than 10 µM in each case. Further, the TGI in assay [6] and in assay [7] was greater than 10 µM each time.

As for `COc1ccc(/C(=N\NC(=O)C(N)=O)C(c2ccc(OC)cc2)C2(O)C(=O)Nc3c(Cl)cccc32)cc1` (configuration not stated), the TGI in assay [8], in [1], in assay [2], in assay [3], in [4] and in [5] was greater than 100 µM throughout. Besides, the concentration for total growth inhibition (TGI) in assay [6] and in assay [7] was greater than 100 µM in each case.

Regarding `CC1=C2CCCC2=C/C(=N/Nc2ccc([N+](=O)[O-])cc2[N+](=O)[O-])CC1`, the TGI in [8], in [1], in assay [2], in [3], in assay [4] and in [5] was greater than 100 µM in each case. Moreover, the TGI in [6] and in assay [7] was greater than 100 µM each time.

As to `O=C(c1ccc(Cl)cc1)c1cnc(Nc2ccccc2Cl)s1`, the TGI was greater than 100 µM in [8]; 50.5 µM in assay [1]; 41.7 µM in [2]; greater than 100 µM in assay [3]; greater than 100 µM in assay [4]; 55.5 µM in assay [10]. Also, the TGI in [5] is 44.3 µM; in assay [6], greater than 100 µM; in [7], 66.4 µM.

In the case of `O=c1n(-c2ccccc2)c(=O)n2n1C1C=CC2C2C(C1)C2(Cl)Cl` (configuration not stated), the TGI in assay [8], in assay [1], in assay [2], in assay [3], in assay [4] and in [5] was greater than 100 µM throughout. Moreover, the TGI in assay [6] and in assay [7] was greater than 100 µM each time.

Consider `CCOC(=O)C(C)(C)Oc1ccc2c(C)c(-c3ccc(Cl)cc3)c(=O)oc2c1`, for which the TGI in assay [8], in assay [1], in assay [2], in assay [3], in [4] and in assay [5] was greater than 100 µM throughout. In addition, the TGI in [6] and in assay [7] was greater than 100 µM each time.

Take `O=C1CC(C[C@H](O)C2CCCCC2O)CC(=O)N1Cc1ccccc1` (some centres not stated): the TGI in [8], in assay [1], in assay [2], in assay [3], in assay [4] and in assay [5] was greater than 100 µM each time. For the same compound, the TGI in assay [6] and in assay [7] was greater than 100 µM each time.

For the compound `CCOc1ccc(N2C(=O)/C(=C/c3ccc(N(CCC#N)CCC#N)cc3)N=C2c2cc([N+](=O)[O-])ccc2Cl)cc1`, the TGI in [8] was 44.1 µM; in [1], greater than 100 µM; in [2] it was 39.5 µM; in [3], 62.6 µM; in assay [4] it was 13.8 µM; in assay [5], 83.7 µM. Further, the values for the TGI in assay [6] and in assay [7] were 55.9 µM and 83.3 µM, respectively.

With `COc1ccc(-c2cc(-c3ccccc3)c(C#N)c(=O)n2C2OC(CO)C(O)C(O)C2O)cc1` (configuration not stated), the TGI in assay [8], in [1], in assay [2], in assay [3], in [4] and in assay [5] was greater than 100 µM each time. Further, the TGI in [6] and in assay [7] was greater than 100 µM in each case.

As for `C[C@H]1NC(=O)C2CCCCN2C(=O)CN(C)C(=O)CNC(=O)C2CCCCN2C(=O)[C@@H](NC(=O)c2nc3ccccc3cc2O)[C@@H](C)NC(=O)C2CCCCN2C(=O)CN(C)C(=O)CNC(=O)[C@@H]2CCCCN2C(=O)C1NC(=O)c1nc2ccccc2cc1O` (some centres not stated), the TGI in assay [8] was 0.641 µM; in assay [1], 23.2 µM; in assay [3] it was greater than 100 µM; in [4], 7.03 µM; in [5], 4.8 µM; in assay [6], 12.3 µM. In [7], this compound came in with a TGI of 0.105 µM.

Turning to `COc1ccc(NC(=O)/C(N=O)=C(/C)O)cc1`, the TGI in assay [1] was greater than 100 µM; in [2], greater than 100 µM; in assay [3] it was 47.9 µM; in assay [4] it was greater than 100 µM; in [5] it was greater than 100 µM; in assay [6] it was 30 µM. In assay [7], this compound yielded a TGI greater than 100 µM.
